ChEMBL document CHEMBL3885881, “DrugMatrix”

Species: Rattus norvegicus
Experiment: DrugMatrix - Regimen: Daily Repeat
Assay type: toxicity, organism-based, Sprague-Dawley
Design: regimen Daily Repeat, gender Male, age 6-8 weeks
Conditions: in vivo, po, 72 h, route oral GAVAGE, time 3 day, vehicle .5 % CMC; for ABSOLUTE BASOPHIL / ABSOLUTE EOSINOPHIL / ABSOLUTE LYMPHOCYTE / ABSOLUTE MONOCYTE / ABSOLUTE SEGMENTED NEUTROPHIL / BASOPHIL / EOSINOPHIL / ERYTHROCYTE COUNT / HEMATOCRIT / HEMOGLOBIN / LEUKOCYTE COUNT / LYMPHOCYTE / MEAN CORPUSCULAR HEMOGLOBIN / MEAN CORPUSCULAR HEMOGLOBIN CONCENTRATION / MEAN CORPUSCULAR VOLUME / MONOCYTE / NEUTROPHIL / NUCLEATED RED BLOOD CELLS / PLATELET COUNT: tissue Blood; for ALANINE AMINOTRANSFERASE / ALBUMIN / ALKALINE PHOSPHATASE / ASPARTATE AMINOTRANSFERASE / BLOOD UREA NITROGEN / CARBON DIOXIDE / CHLORIDE / CHOLESTEROL / CREATINE PHOSPHOKINASE / CREATININE / GLUCOSE / LACTATE DEHYDROGENASE / LIPASE / PHOSPHORUS / POTASSIUM / SODIUM / TOTAL BILIRUBIN / TOTAL PROTEIN / URIC ACID: tissue Plasma

Compound: C=C1CC[C@H](O)C/C1=C/C=C1\CCC[C@]2(C)[C@@H]([C@H](C)/C=C/[C@H](C)C(C)C)CC[C@@H]12 [ERGOCALCIFEROL]
- ABSOLUTE BASOPHIL (0 mg/kg, dose level Control): 0 CELLS/uL
- ABSOLUTE EOSINOPHIL (0 mg/kg, dose level Control): 8.83 CELLS/uL
- ABSOLUTE LYMPHOCYTE (0 mg/kg, dose level Control): 7222.33 CELLS/uL
- ABSOLUTE MONOCYTE (0 mg/kg, dose level Control): 0 CELLS/uL
- ABSOLUTE SEGMENTED NEUTROPHIL (0 mg/kg, dose level Control): 752.17 CELLS/uL
- BASOPHIL (0 mg/kg, dose level Control): 0%
- EOSINOPHIL (0 mg/kg, dose level Control): 0.17%
- ERYTHROCYTE COUNT (0 mg/kg, dose level Control): 5.22 x10E6/uL
- HEMATOCRIT (0 mg/kg, dose level Control): 32.6%
- HEMOGLOBIN (0 mg/kg, dose level Control): 12.43 G/DL
- LEUKOCYTE COUNT (0 mg/kg, dose level Control): 7.98 x10E3/uL
- LYMPHOCYTE (0 mg/kg, dose level Control): 91.17%
- MEAN CORPUSCULAR HEMOGLOBIN (0 mg/kg, dose level Control): 23.87 pg
- MEAN CORPUSCULAR HEMOGLOBIN CONCENTRATION (0 mg/kg, dose level Control): 38.18 G/DL
- MEAN CORPUSCULAR VOLUME (0 mg/kg, dose level Control): 62.48 fL
- MONOCYTE (0 mg/kg, dose level Control): 0%
- NEUTROPHIL (0 mg/kg, dose level Control): 8.67%
- NUCLEATED RED BLOOD CELLS (0 mg/kg, dose level Control): 0 /100WBC
- PLATELET COUNT (0 mg/kg, dose level Control): 1082.33 x10E3/uL
- ALANINE AMINOTRANSFERASE (0 mg/kg, dose level Control): 42.17 u/L
- ALBUMIN (0 mg/kg, dose level Control): 4.33 G/DL
- ALKALINE PHOSPHATASE (0 mg/kg, dose level Control): 451.17 u/L
- ASPARTATE AMINOTRANSFERASE (0 mg/kg, dose level Control): 76.17 u/L
- BLOOD UREA NITROGEN (0 mg/kg, dose level Control): 13.33 mg/dL
- CARBON DIOXIDE (0 mg/kg, dose level Control): 31.67 mmol/L
- CHLORIDE (0 mg/kg, dose level Control): 96.5 MEQ/L
- CHOLESTEROL (0 mg/kg, dose level Control): 78 mg/dL
- CREATINE PHOSPHOKINASE (0 mg/kg, dose level Control): 216.5 u/L
- CREATININE (0 mg/kg, dose level Control): 0.22 mg/dL
- GLUCOSE (0 mg/kg, dose level Control): 137 mg/dL
- LACTATE DEHYDROGENASE (0 mg/kg, dose level Control): 138.5 u/L
- LIPASE (0 mg/kg, dose level Control): 8.67 u/L
- PHOSPHORUS (0 mg/kg, dose level Control): 12.68 mg/dL
- POTASSIUM (0 mg/kg, dose level Control): 6.23 MEQ/L
- SODIUM (0 mg/kg, dose level Control): 143.47 MEQ/L
- TOTAL BILIRUBIN (0 mg/kg, dose level Control): 0.15 mg/dL
- TOTAL PROTEIN (0 mg/kg, dose level Control): 6.33 G/DL
- URIC ACID (0 mg/kg, dose level Control): 1.1 mg/dL
- ABSOLUTE BASOPHIL (1 mg/kg, dose level Low): 0 CELLS/uL
- ABSOLUTE EOSINOPHIL (1 mg/kg, dose level Low): 30.67 CELLS/uL
- ABSOLUTE LYMPHOCYTE (1 mg/kg, dose level Low): 8277.33 CELLS/uL
- ABSOLUTE MONOCYTE (1 mg/kg, dose level Low): 0 CELLS/uL
- ABSOLUTE SEGMENTED NEUTROPHIL (1 mg/kg, dose level Low): 658.67 CELLS/uL
- BASOPHIL (1 mg/kg, dose level Low): 0%
- EOSINOPHIL (1 mg/kg, dose level Low): 0.33%
- ERYTHROCYTE COUNT (1 mg/kg, dose level Low): 5.18 x10E6/uL
- HEMATOCRIT (1 mg/kg, dose level Low): 32.07%
- HEMOGLOBIN (1 mg/kg, dose level Low): 12.3 G/DL
- LEUKOCYTE COUNT (1 mg/kg, dose level Low): 8.97 x10E3/uL
- LYMPHOCYTE (1 mg/kg, dose level Low): 92.33%
- MEAN CORPUSCULAR HEMOGLOBIN (1 mg/kg, dose level Low): 23.7 pg
- MEAN CORPUSCULAR HEMOGLOBIN CONCENTRATION (1 mg/kg, dose level Low): 38.37 G/DL
- MEAN CORPUSCULAR VOLUME (1 mg/kg, dose level Low): 61.9 fL
- MONOCYTE (1 mg/kg, dose level Low): 0%
- NEUTROPHIL (1 mg/kg, dose level Low): 7.33%
- NUCLEATED RED BLOOD CELLS (1 mg/kg, dose level Low): 0.33 /100WBC
- PLATELET COUNT (1 mg/kg, dose level Low): 1019.33 x10E3/uL
- ALANINE AMINOTRANSFERASE (1 mg/kg, dose level Low): 47 u/L
- ALBUMIN (1 mg/kg, dose level Low): 4.37 G/DL
- ALKALINE PHOSPHATASE (1 mg/kg, dose level Low): 374.33 u/L
- ASPARTATE AMINOTRANSFERASE (1 mg/kg, dose level Low): 77.33 u/L
- BLOOD UREA NITROGEN (1 mg/kg, dose level Low): 13.33 mg/dL
- CARBON DIOXIDE (1 mg/kg, dose level Low): 31 mmol/L
- CHLORIDE (1 mg/kg, dose level Low): 97.33 MEQ/L
- CHOLESTEROL (1 mg/kg, dose level Low): 71.67 mg/dL
- CREATINE PHOSPHOKINASE (1 mg/kg, dose level Low): 205 u/L
- CREATININE (1 mg/kg, dose level Low): 0.28 mg/dL
- GLUCOSE (1 mg/kg, dose level Low): 142 mg/dL
- LACTATE DEHYDROGENASE (1 mg/kg, dose level Low): 139.33 u/L
- LIPASE (1 mg/kg, dose level Low): 8 u/L
- PHOSPHORUS (1 mg/kg, dose level Low): 13.07 mg/dL
- POTASSIUM (1 mg/kg, dose level Low): 6.56 MEQ/L
- SODIUM (1 mg/kg, dose level Low): 144.27 MEQ/L
- TOTAL BILIRUBIN (1 mg/kg, dose level Low): 0.17 mg/dL
- TOTAL PROTEIN (1 mg/kg, dose level Low): 6.43 G/DL
- URIC ACID (1 mg/kg, dose level Low): 1.17 mg/dL
- ABSOLUTE BASOPHIL (15 mg/kg, dose level High): 0 CELLS/uL
- ABSOLUTE EOSINOPHIL (15 mg/kg, dose level High): 0 CELLS/uL
- ABSOLUTE LYMPHOCYTE (15 mg/kg, dose level High): 7628 CELLS/uL
- ABSOLUTE MONOCYTE (15 mg/kg, dose level High): 40.67 CELLS/uL
- ABSOLUTE SEGMENTED NEUTROPHIL (15 mg/kg, dose level High): 1198 CELLS/uL
- BASOPHIL (15 mg/kg, dose level High): 0%
- EOSINOPHIL (15 mg/kg, dose level High): 0%
- ERYTHROCYTE COUNT (15 mg/kg, dose level High): 5.54 x10E6/uL
- HEMATOCRIT (15 mg/kg, dose level High): 34.3%
- HEMOGLOBIN (15 mg/kg, dose level High): 13.2 G/DL
- LEUKOCYTE COUNT (15 mg/kg, dose level High): 8.87 x10E3/uL
- LYMPHOCYTE (15 mg/kg, dose level High): 86.67%
- MEAN CORPUSCULAR HEMOGLOBIN (15 mg/kg, dose level High): 23.83 pg
- MEAN CORPUSCULAR HEMOGLOBIN CONCENTRATION (15 mg/kg, dose level High): 38.5 G/DL
- MEAN CORPUSCULAR VOLUME (15 mg/kg, dose level High): 61.97 fL
- MONOCYTE (15 mg/kg, dose level High): 0.33%
- NEUTROPHIL (15 mg/kg, dose level High): 13%
- NUCLEATED RED BLOOD CELLS (15 mg/kg, dose level High): 0.33 /100WBC
- PLATELET COUNT (15 mg/kg, dose level High): 1196.67 x10E3/uL
- ALANINE AMINOTRANSFERASE (15 mg/kg, dose level High): 55 u/L
- ALBUMIN (15 mg/kg, dose level High): 4.43 G/DL
- ALKALINE PHOSPHATASE (15 mg/kg, dose level High): 367.33 u/L
- ASPARTATE AMINOTRANSFERASE (15 mg/kg, dose level High): 84 u/L
- BLOOD UREA NITROGEN (15 mg/kg, dose level High): 14.33 mg/dL
- CARBON DIOXIDE (15 mg/kg, dose level High): 31.67 mmol/L
- CHLORIDE (15 mg/kg, dose level High): 93.33 MEQ/L
- CHOLESTEROL (15 mg/kg, dose level High): 74.33 mg/dL
- CREATINE PHOSPHOKINASE (15 mg/kg, dose level High): 211.67 u/L
- CREATININE (15 mg/kg, dose level High): 0.24 mg/dL
- GLUCOSE (15 mg/kg, dose level High): 139.33 mg/dL
- LACTATE DEHYDROGENASE (15 mg/kg, dose level High): 153 u/L
- LIPASE (15 mg/kg, dose level High): 8.33 u/L
- PHOSPHORUS (15 mg/kg, dose level High): 13.23 mg/dL
- POTASSIUM (15 mg/kg, dose level High): 6.15 MEQ/L
- SODIUM (15 mg/kg, dose level High): 144.7 MEQ/L
- TOTAL BILIRUBIN (15 mg/kg, dose level High): 0.1 mg/dL
- TOTAL PROTEIN (15 mg/kg, dose level High): 6.63 G/DL
- URIC ACID (15 mg/kg, dose level High): 1.43 mg/dL
